Measurements: patent US10940139B2, “Compounds that interact with the Ras superfamily for the treatment of cancers, inflammatory diseases, rasopathies, and fibrotic disease” (Shy Therapeutics LLC, priority 2017, dated 2021)

Columns and labels:
[1] = test system: IL6 production in RAW 264.7 macrophage cell line; experiment: Mouse IL6 quantification assay (LPS-stimulated macrophages, ELISA); type: cell-based; settings: RAW264.7, RAW 264.7 murine leukemia virus transformed macrophage cell lines, LPS stimulation, read-out: IL-6 % Inhibition at 30 μM
[2] = test system: TNFα production in RAW 264.7 macrophage cell line; experiment: Mouse TNF alpha quantification assay (LPS-stimulated macrophages, ELISA); type: cell-based; settings: RAW264.7, RAW 264.7 murine leukemia virus transformed macrophage cell lines, LPS stimulation, read-out: TNF-α % Inhibition at 30 μM

Nc1nc(O)c2sc(-c3cccc(C(=O)NCc4cccc(O)n4)c3)cc2n1 [drawing 2373]
inhibition at 30 µM [1]: 51 to 75% | inhibition at 30 µM [2]: 0%

COC(=O)c1nc(-c2ccccn2)nc(O)c1O [drawing 2374]
inhibition at 30 µM [1]: 0% | inhibition at 30 µM [2]: 0%

Oc1nc(-c2ccccn2)nc2c(-c3ccccc3)c(-c3ccncc3)sc12 [drawing 2375]
inhibition at 30 µM [1]: 1 to 25% | inhibition at 30 µM [2]: 0%

Cn1cnc(-c2nc(O)c3sc(-c4ccncc4)c(-c4ccccc4)c3n2)c1 [drawing 2376]
inhibition at 30 µM [1]: 1 to 25% | inhibition at 30 µM [2]: 0%

COCC(C)Nc1nc(-c2ccccn2)nc(C(=O)NCCCc2c[nH]cn2)c1Oc1ccccc1 (centres unmarked) [drawing 2377]
inhibition at 30 µM [1]: 1 to 25% | inhibition at 30 µM [2]: 0%

Nc1nc(-c2ccccn2)nc(C(=O)NCCc2ccncc2)c1Oc1ccccc1 [drawing 2378]
inhibition at 30 µM [1]: 0% | inhibition at 30 µM [2]: 0%

COc1nc(-c2ccccn2)nc(Oc2cccc(C(F)(F)F)c2)c1OC [drawing 2379]
inhibition at 30 µM [1]: 1 to 25% | inhibition at 30 µM [2]: 1 to 25%

Oc1nc(-c2ccccn2)nc2c(Br)c(-c3ccccc3)sc12 [drawing 2380]
inhibition at 30 µM [1]: 1 to 25% | inhibition at 30 µM [2]: 0%

CC(C)(C)c1sc2c(O)nc(-c3ccccn3)nc2c1Br [drawing 2381]
inhibition at 30 µM [1]: 0% | inhibition at 30 µM [2]: 1 to 25%

Cc1ccc(-c2cc3nc(-c4ccccn4)nc(O)c3s2)cc1 [drawing 2382]
inhibition at 30 µM [1]: 1 to 25% | inhibition at 30 µM [2]: 1 to 25%

Oc1nc(-c2ccccn2)nc2cc(-c3ccccc3Cl)sc12 [drawing 2383]
inhibition at 30 µM [1]: 26 to 50% | inhibition at 30 µM [2]: 0%

COc1c(O)nc(-c2ccccn2)nc1Oc1cccc(C(F)(F)F)c1 [drawing 2384]
inhibition at 30 µM [1]: 1 to 25% | inhibition at 30 µM [2]: 26 to 50%

Oc1nc(-c2ccccn2)nc(Oc2cccc(C(F)(F)F)c2)c1O [drawing 2385]
inhibition at 30 µM [1]: 1 to 25% | inhibition at 30 µM [2]: 1 to 25%

Oc1nc(-c2ccccn2)nc2cc(-c3ccc(-c4ccccc4)cc3)sc12 [drawing 2386]
inhibition at 30 µM [1]: 51 to 75% | inhibition at 30 µM [2]: 1 to 25%

Cc1ccc(-c2csc3c(O)nc(-c4ccccn4)nc23)cc1 [drawing 2387]
inhibition at 30 µM [1]: 0% | inhibition at 30 µM [2]: 1 to 25%

Oc1nc(-c2ccccn2)nc2cc(-c3ccncc3)sc12 [drawing 2388]
inhibition at 30 µM [1]: 26 to 50% | inhibition at 30 µM [2]: 1 to 25%

Oc1nc(-c2ccccn2)nc2cc(-c3ccccc3)sc12 [drawing 2389]
inhibition at 30 µM [1]: 26 to 50% | inhibition at 30 µM [2]: 1 to 25%

COc1ccc(-c2cc3nc(-c4ccccn4)nc(O)c3s2)cc1 [drawing 2390]
inhibition at 30 µM [1]: 0% | inhibition at 30 µM [2]: 1 to 25%

Oc1nc(-c2ccccn2)nc2cc(-c3cccc(Br)c3)sc12 [drawing 2391]
inhibition at 30 µM [1]: 1 to 25% | inhibition at 30 µM [2]: 1 to 25%

COc1nc(-c2ccccn2)nc(Oc2cccc(C(F)(F)F)c2)c1O [drawing 2392]
inhibition at 30 µM [1]: 0% | inhibition at 30 µM [2]: 1 to 25%

COCCN(C)c1nc(-c2nccn2C)nc2sc(-c3ccccc3)c(-c3ccccc3)c12 [drawing 2393]
inhibition at 30 µM [1]: 76 to 100% | inhibition at 30 µM [2]: 76 to 100%

CC(C)OCCNc1nc(-c2nccn2C)nc2sc(-c3ccccc3)c(-c3ccccc3)c12 [drawing 2394]
inhibition at 30 µM [1]: 1 to 25% | inhibition at 30 µM [2]: 1 to 25%

Cn1ccnc1-c1nc(NCCOC(F)(F)F)c2c(-c3ccccc3)c(-c3ccccc3)sc2n1 [drawing 2395]
inhibition at 30 µM [1]: 26 to 50% | inhibition at 30 µM [2]: 1 to 25%

CC(O)CNc1nc(-c2nccn2C)nc2sc(-c3ccccc3)c(-c3ccccc3)c12 (centres unmarked) [drawing 2396]
inhibition at 30 µM [1]: 26 to 50% | inhibition at 30 µM [2]: 0%

COCCCNc1nc(-c2nccn2C)nc2sc(-c3ccccc3)c(-c3ccccc3)c12 [drawing 2397]
inhibition at 30 µM [1]: 76 to 100% | inhibition at 30 µM [2]: 76 to 100%

COC1CCN(c2nc(-c3nccn3C)nc3sc(-c4ccccc4)c(-c4ccccc4)c23)C1 (centres unmarked) [drawing 2398]
inhibition at 30 µM [1]: 76 to 100% | inhibition at 30 µM [2]: 76 to 100%

CCOCCOc1nc(-c2nccn2C)nc2sc(-c3ccccc3)c(-c3ccccc3)c12 [drawing 2399]
inhibition at 30 µM [1]: 1 to 25% | inhibition at 30 µM [2]: 26 to 50%

CCN(CC)CCOc1nc(-c2nccn2C)nc2sc(-c3ccccc3)c(-c3ccccc3)c12 [drawing 2400]
inhibition at 30 µM [1]: 76 to 100% | inhibition at 30 µM [2]: 76 to 100%

COCCNc1nc(-c2ccncn2)nc2sc(-c3ccccc3)c(-c3ccccc3)c12 [drawing 2401]
inhibition at 30 µM [1]: 76 to 100% | inhibition at 30 µM [2]: 51 to 75%

CCOCCNc1nc(-c2nccn2C)nc2sc(-c3ccccc3)c(-c3ccccc3)c12 [drawing 2402]
inhibition at 30 µM [1]: 76 to 100% | inhibition at 30 µM [2]: 76 to 100%

Cn1ccnc1-c1nc(NCCOC2CC2)c2c(-c3ccccc3)c(-c3ccccc3)sc2n1 [drawing 2403]
inhibition at 30 µM [1]: 76 to 100% | inhibition at 30 µM [2]: 76 to 100%

COCC(C)Nc1nc(-c2nccn2C)nc2sc(-c3ccccc3)c(-c3ccccc3)c12 (centres unmarked) [drawing 2404]
inhibition at 30 µM [1]: 76 to 100% | inhibition at 30 µM [2]: 76 to 100%

CC(CO)Nc1nc(-c2nccn2C)nc2sc(-c3ccccc3)c(-c3ccccc3)c12 (centres unmarked) [drawing 2405]
inhibition at 30 µM [1]: 51 to 75% | inhibition at 30 µM [2]: 1 to 25%

Cn1ccnc1-c1nc(NCCCO)c2c(-c3ccccc3)c(-c3ccccc3)sc2n1 [drawing 2406]
inhibition at 30 µM [1]: 51 to 75% | inhibition at 30 µM [2]: 26 to 50%

COCCNc1nc(-c2nccn2C)nc2sc(-c3ccccc3)c(-c3ccccc3Cl)c12 [drawing 2407]
inhibition at 30 µM [1]: 51 to 75% | inhibition at 30 µM [2]: 1 to 25%

COCCNc1nc(-c2nccn2C)nc2sc(-c3ccccc3Cl)c(-c3ccccc3)c12 [drawing 2408]
inhibition at 30 µM [1]: 1 to 25% | inhibition at 30 µM [2]: 1 to 25%

COCCNc1nc(-c2nccn2C)nc2sc(-c3ccncc3)c(-c3ccccc3)c12 [drawing 2409]
inhibition at 30 µM [1]: 76 to 100% | inhibition at 30 µM [2]: 51 to 75%

COCCNc1nc(-c2cn(C)cn2)nc2sc(-c3ccccc3)c(-c3ccccc3)c12 [drawing 2410]
inhibition at 30 µM [1]: 76 to 100% | inhibition at 30 µM [2]: 76 to 100%

COCCNc1nc(-c2nccn2C)nc2sc(C)c(-c3ccccc3)c12 [drawing 2411]
inhibition at 30 µM [1]: 1 to 25% | inhibition at 30 µM [2]: 26 to 50%

COCCNc1nc(-c2cn(C)cn2)nc2sc(C)c(-c3ccccc3)c12 [drawing 2412]
inhibition at 30 µM [1]: 1 to 25% | inhibition at 30 µM [2]: 26 to 50%

COCCNc1nc(-c2nccn2C)nc2sc(-c3cccc(OC)c3)c(-c3ccccc3)c12 [drawing 2413]
inhibition at 30 µM [1]: 76 to 100% | inhibition at 30 µM [2]: 76 to 100%

CC(C)COc1ccc(-c2c(-c3ccccc3)sc3c(O)nc(-c4nccn4C)nc23)cn1 [drawing 2414]
inhibition at 30 µM [1]: 51 to 75% | inhibition at 30 µM [2]: 1 to 25%

Cn1ccnc1-c1nc(O)c2sc(-c3ccccc3)c(-c3ccccc3)c2n1 [drawing 2415]
inhibition at 30 µM [1]: 1 to 25% | inhibition at 30 µM [2]: 0%

COCCNc1nc(-c2nccn2C)nc2sc(-c3ccccc3)c(-c3ccc(OC)cc3)c12 [drawing 2416]
inhibition at 30 µM [1]: 76 to 100% | inhibition at 30 µM [2]: 51 to 75%

COCCNc1nc(-c2nccn2C)nc2sc(C3CCOCC3)c(-c3ccccc3)c12 [drawing 2417]
inhibition at 30 µM [1]: 76 to 100% | inhibition at 30 µM [2]: 76 to 100%

COCCNc1nc(-c2cccc(N)n2)nc2sc(-c3ccccc3)c(-c3ccccc3)c12 [drawing 2418]
inhibition at 30 µM [1]: 26 to 50% | inhibition at 30 µM [2]: 26 to 50%

Cn1ccnc1-c1nc(O)c2sc(-c3ccccc3)c(-c3cccc(C(F)(F)F)c3)c2n1 [drawing 2419]
inhibition at 30 µM [1]: 26 to 50% | inhibition at 30 µM [2]: 26 to 50%

COc1ccc(-c2c(-c3ccccc3)sc3c(O)nc(-c4nccn4C)nc23)cn1 [drawing 2420]
inhibition at 30 µM [1]: 26 to 50% | inhibition at 30 µM [2]: 26 to 50%

Cc1sc2c(O)nc(-c3nccn3C)nc2c1-c1ccccc1 [drawing 2421]
inhibition at 30 µM [1]: 76 to 100% | inhibition at 30 µM [2]: 26 to 50%

Cn1ccnc1-c1nc(O)c2sc(-c3ccccc3)c(-c3ccccc3Cl)c2n1 [drawing 2422]
inhibition at 30 µM [1]: 76 to 100% | inhibition at 30 µM [2]: 51 to 75%

COCCNc1nc(-c2nccn2C)nc2sc(-c3ccccc3)c(-c3ccncc3)c12 [drawing 2423]
inhibition at 30 µM [1]: 51 to 75% | inhibition at 30 µM [2]: 1 to 25%

COCCNc1nc(-c2nccn2C)nc2sc(-c3ccc(OC)cc3)c(-c3ccccc3)c12 [drawing 2424]
inhibition at 30 µM [1]: 76 to 100% | inhibition at 30 µM [2]: 51 to 75%

Cn1ccnc1-c1nc(O)c2scc(-c3cccc(C(F)(F)F)c3)c2n1 [drawing 2425]
inhibition at 30 µM [1]: 76 to 100% | inhibition at 30 µM [2]: 51 to 75%

Cc1sc2c(O)nc(-c3nccn3C)nc2c1-c1cccc(C(F)(F)F)c1 [drawing 2426]
inhibition at 30 µM [1]: 0% | inhibition at 30 µM [2]: 0%

Cc1sc2c(O)nc(-c3nccn3C)nc2c1-c1ccc(OCC(C)C)nc1 [drawing 2427]
inhibition at 30 µM [1]: 1 to 25% | inhibition at 30 µM [2]: 1 to 25%

COc1ccc(-c2c(C)sc3c(O)nc(-c4nccn4C)nc23)cn1 [drawing 2428]
inhibition at 30 µM [1]: 1 to 25% | inhibition at 30 µM [2]: 1 to 25%

Cc1sc2c(O)nc(-c3nccn3C)nc2c1-c1ccccc1Cl [drawing 2429]
inhibition at 30 µM [1]: 26 to 50% | inhibition at 30 µM [2]: 1 to 25%

Cn1ccnc1-c1nc(O)c2scc(-c3cccc(OC(F)(F)F)c3)c2n1 [drawing 2430]
inhibition at 30 µM [1]: 76 to 100% | inhibition at 30 µM [2]: 51 to 75%

Cn1cnc(-c2nc(O)c3scc(-c4cccc(C(F)(F)F)c4)c3n2)c1 [drawing 2431]
inhibition at 30 µM [1]: 0% | inhibition at 30 µM [2]: 0%

CC(C)COc1ccc(-c2csc3c(O)nc(-c4cn(C)cn4)nc23)cn1 [drawing 2432]
inhibition at 30 µM [1]: 76 to 100% | inhibition at 30 µM [2]: 26 to 50%

Cn1cnc(-c2nc(O)c3scc(-c4cccc(OC(F)(F)F)c4)c3n2)c1 [drawing 2433]
inhibition at 30 µM [1]: 0% | inhibition at 30 µM [2]: 0%

Oc1nc(-c2ccncn2)nc2c(-c3cccc(C(F)(F)F)c3)csc12 [drawing 2434]
inhibition at 30 µM [1]: 26 to 50% | inhibition at 30 µM [2]: 0%

Oc1nc(-c2ncccn2)nc2c(-c3cccc(C(F)(F)F)c3)csc12 [drawing 2435]
inhibition at 30 µM [1]: 1 to 25% | inhibition at 30 µM [2]: 26 to 50%

CC(C)Oc1ccc(-c2csc3c(O)nc(-c4nccn4C)nc23)cc1F [drawing 2436]
inhibition at 30 µM [1]: 1 to 25% | inhibition at 30 µM [2]: 0%
